From article PMC11394002, “5-Aminothiazoles Reveal a New Ligand-Binding Site on Prolyl Oligopeptidase Which is Important for Modulation of Its Protein–Protein Interaction-Derived Functions” (Journal of Medicinal Chemistry, 2024)
Like-named read-outs stand apart in the source and are kept apart here.

Tests used:
[1] = test system: αSyn dimerization in Neuro2A cells; conditions: luminescence signal percentage of DMSO control with SEM, cited from earlier work
[2] = test system: HEK-293 cells stably expressing GFP-LC3B; conditions: GFP signal percentage of DMSO control with SEM, ref 16 or 19; cited from earlier work
[3] = test system: HEK-293 cells stably expressing GFP-LC3B; assay: Autophagic flux assay (GFP signal); format: cell-based, human
[4] = test system: αSyn dimerization in Neuro2A cells; assay: α-Synuclein dimerization assay (split Gaussia luciferase PCA); format: cell-based, mouse

SMILES: C[C@H](NC(=O)CCCc1ccccc1)C(=O)N1CCC[C@H]1c1nnn[nH]1 [HUP-28]
- αSyn dimerization at 10 μM ([1]; ref 16 or 19): 75 ± 5%
- autophagy at 10 μM [2]: 71 ± 6%

SMILES: Cc1nc(CCCc2ccccc2)sc1N1CCC[C@H]1C#N [HUP-46, (S)-1-(4-Methyl-2-(3-phenylpropyl)thiazol-5-yl)pyrrolidine-2-carbonitrile]
- autophagic flux, concentration–response [3]: concentration-dependent up to 20 μM
- concentration of maximal efficacy in the αSyn dimerization assay [4]: 10 µM

SMILES: CO[C@H]1C[C@@H]2CC[C@@H](C)[C@@](O)(O2)C(=O)C(=O)N2CCCC[C@H]2C(=O)O[C@H]([C@H](C)C[C@@H]2CC[C@@H](O)[C@H](OC)C2)CC(=O)[C@H](C)/C=C(\C)[C@@H](O)[C@@H](OC)C(=O)[C@H](C)C[C@H](C)/C=C/C=C/C=C/1C [Rapamycin]
- GFP signal of the baseline ([3]; rapamycin positive control (0.5 μM), maximum effect in this assay): about 65%

SMILES: Cc1nc(CCCc2ccccc2)oc1N1CCC[C@H]1C#N [HUP-55]
- αSyn dimerization at 10 μM [1]: 85 ± 2%

SMILES: CC(C)c1nc(CCc2c[nH]c3ccccc23)sc1N1CCCC1 [Compound 16k, 2-(2-(1H-Indol-3-yl)ethyl)-4-isopropyl-5-(pyrrolidin-1-yl)thiazole]
- effect on autophagy (in words) ([3]; 10 μM, SAR discussion): loss of activity
- effect on αSyn dimerization (in words) ([4]; 10 μM, SAR discussion): loss of activity
